Laboratory results taken from PubChem BioAssay AID2060500 (Molecular Pharmacology Branch, DTP, NCI, 2025).

Tested on: 596521-263-R-J1-PDC complex spheroids, viability % of control
Assay: Anticancer human tumor 596521-263-R-J1-PDC patient-derived soft tissue sarcoma cell line growth inhibition [GQUAD]
Conditions: for IC50: curve of first compound; for viability, T/C: stronger effect = lower value
Method in brief: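 Multi-cell-type spheroids of tumor cells with HUVEC and mesenchymal stem cells, treated with drug combinations. Concentrations descend in half-log steps from near clinical Cmax, or from 10 microM where Cmax is unknown; viability read-out.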

[1] = second compound 0.0316 µM, first compound 0.0316 µM
[2] = second compound 0.0316 µM, first compound 0.1 µM
[3] = second compound 0.0316 µM, first compound 0.316 µM
[4] = second compound 0.0316 µM, first compound 1 µM
[5] = second compound 0.0316 µM, first compound 3.16 µM
[6] = second compound 0.0316 µM, first compound 10 µM
[7] = second compound 0.1 µM, first compound 0.0316 µM
[8] = second compound 0.1 µM, first compound 0.1 µM
[9] = second compound 0.1 µM, first compound 0.316 µM
[10] = second compound 0.1 µM, first compound 1 µM
[11] = second compound 0.1 µM, first compound 3.16 µM
[12] = second compound 0.1 µM, first compound 10 µM
[13] = second compound 0.316 µM, first compound 0.0316 µM
[14] = second compound 0.316 µM, first compound 0.1 µM
[15] = second compound 0.316 µM, first compound 0.316 µM
[16] = second compound 0.316 µM, first compound 1 µM
[17] = second compound 0.316 µM, first compound 3.16 µM
[18] = second compound 0.316 µM, first compound 10 µM
[19] = second compound 1 µM, first compound 0.0316 µM
[20] = second compound 1 µM, first compound 0.1 µM
[21] = second compound 1 µM, first compound 0.316 µM
[22] = second compound 1 µM, first compound 1 µM
[23] = second compound 1 µM, first compound 3.16 µM
[24] = second compound 1 µM, first compound 10 µM
[25] = second compound 3.16 µM, first compound 0.0316 µM
[26] = second compound 3.16 µM, first compound 0.1 µM
[27] = second compound 3.16 µM, first compound 0.316 µM
[28] = second compound 3.16 µM, first compound 1 µM
[29] = second compound 3.16 µM, first compound 3.16 µM
[30] = second compound 3.16 µM, first compound 10 µM
[31] = second compound 10 µM, first compound 0.0316 µM
[32] = second compound 10 µM, first compound 0.1 µM
[33] = second compound 10 µM, first compound 0.316 µM
[34] = second compound 10 µM, first compound 1 µM
[35] = second compound 10 µM, first compound 3.16 µM
[36] = second compound 10 µM, first compound 10 µM
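Note: spheroids exposed to drugs for 7 days before viability reading.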
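Throughout, for viability, T/C: 100% = DMSO vehicle control viability.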

SMILES: C#Cc1c(F)ccc2cc(O)cc(-c3ncc4c(N5CC6CCC(C5)N6)nc(OCC56CCCN5CC(F)C6)nc4c3F)c12 (stereo unspecified) + CN(C)c1ccc(Nc2c3ccc(NC(=O)CCN4CCCC4)cc3nc3cc(NC(=O)CCN4CCCC4)ccc23)cc1
- IC50 (second compound 0.0316 µM): > 10 µM
- IC50 (second compound 0.1 µM): > 10 µM
- IC50 (second compound 0.316 µM): > 10 µM
- IC50 (second compound 1 µM): > 10 µM
- IC50 (second compound 3.16 µM): > 10 µM
- IC50 (second compound 10 µM): 4.15 µM
- viability, T/C [1]: 105%
- viability, T/C [2]: 95.1%
- viability, T/C [3]: 98.7%
- viability, T/C [4]: 115%
- viability, T/C [5]: 106%
- viability, T/C [6]: 99.2%
- viability, T/C [7]: 95.5%
- viability, T/C [8]: 96.1%
- viability, T/C [9]: 107%
- viability, T/C [10]: 108%
- viability, T/C [11]: 112%
- viability, T/C [12]: 92.3%
- viability, T/C [13]: 103%
- viability, T/C [14]: 106%
- viability, T/C [15]: 98.5%
- viability, T/C [16]: 97.3%
- viability, T/C [17]: 104%
- viability, T/C [18]: 83.1%
- viability, T/C [19]: 100%
- viability, T/C [20]: 111%
- viability, T/C [21]: 92.5%
- viability, T/C [22]: 88.6%
- viability, T/C [23]: 104%
- viability, T/C [24]: 96.8%
- viability, T/C [25]: 87.4%
- viability, T/C [26]: 87.2%
- viability, T/C [27]: 98.7%
- viability, T/C [28]: 90.5%
- viability, T/C [29]: 86.6%
- viability, T/C [30]: 78.3%
- viability, T/C [31]: 64.6%
- viability, T/C [32]: 66%
- viability, T/C [33]: 70.7%
- viability, T/C [34]: 64.2%
- viability, T/C [35]: 54.2%
- viability, T/C [36]: 36.8%

SMILES: CC(C)n1c(=O)n(C)c2cnc3cc(F)c(-c4ccc(OCCCN5CCCCC5)nc4)cc3c21 + Cc1cnc(CNC(=O)c2c(=O)c3ccc(N4CCCN(C)CC4)nc3n3c2sc2ccccc23)cn1
- IC50 (second compound 0.0316 µM): > 10 µM
- IC50 (second compound 0.1 µM): > 10 µM
- IC50 (second compound 0.316 µM): > 10 µM
- IC50 (second compound 1 µM): > 10 µM
- IC50 (second compound 3.16 µM): 0.224 µM
- IC50 (second compound 10 µM): < 0.0316 µM
- viability, T/C [1]: 82.1%
- viability, T/C [2]: 67%
- viability, T/C [3]: 78.3%
- viability, T/C [4]: 73%
- viability, T/C [5]: 75.5%
- viability, T/C [6]: 61.9%
- viability, T/C [7]: 70.6%
- viability, T/C [8]: 61.3%
- viability, T/C [9]: 68.2%
- viability, T/C [10]: 63.9%
- viability, T/C [11]: 58.6%
- viability, T/C [12]: 57.8%
- viability, T/C [13]: 69.3%
- viability, T/C [14]: 67.3%
- viability, T/C [15]: 63.5%
- viability, T/C [16]: 62.5%
- viability, T/C [17]: 62.4%
- viability, T/C [18]: 47.6%
- viability, T/C [19]: 63.8%
- viability, T/C [20]: 61.8%
- viability, T/C [21]: 52.3%
- viability, T/C [22]: 54.3%
- viability, T/C [23]: 64.4%
- viability, T/C [24]: 48.3%
- viability, T/C [25]: 51.6%
- viability, T/C [26]: 53.3%
- viability, T/C [27]: 49.7%
- viability, T/C [28]: 46.4%
- viability, T/C [29]: 42.5%
- viability, T/C [30]: 40.3%
- viability, T/C [31]: 51.8%
- viability, T/C [32]: 44.7%
- viability, T/C [33]: 44.9%
- viability, T/C [34]: 44.9%
- viability, T/C [35]: 46.7%
- viability, T/C [36]: 9.8%

SMILES: Cc1cccc(N(C)C(=O)C2C(O)CCN2c2nc(C)cc(C(F)(F)F)c2C#N)c1 (stereo unspecified) + Cc1[nH]c2ccc(F)cc2c1-c1nc2c3cccnc3c3ncccc3c2[nH]1
- IC50 (second compound 0.0316 µM): > 10 µM
- IC50 (second compound 0.1 µM): > 10 µM
- IC50 (second compound 0.316 µM): > 10 µM
- IC50 (second compound 1 µM): > 10 µM
- IC50 (second compound 3.16 µM): > 10 µM
- IC50 (second compound 10 µM): > 10 µM
- viability, T/C [1]: 106%
- viability, T/C [2]: 93.3%
- viability, T/C [3]: 92.7%
- viability, T/C [4]: 101%
- viability, T/C [5]: 98.1%
- viability, T/C [6]: 91.6%
- viability, T/C [7]: 98.7%
- viability, T/C [8]: 99.1%
- viability, T/C [9]: 112%
- viability, T/C [10]: 85.9%
- viability, T/C [11]: 104%
- viability, T/C [12]: 95.1%
- viability, T/C [13]: 102%
- viability, T/C [14]: 100%
- viability, T/C [15]: 91.4%
- viability, T/C [16]: 88.4%
- viability, T/C [17]: 110%
- viability, T/C [18]: 93.7%
- viability, T/C [19]: 91.4%
- viability, T/C [20]: 89.4%
- viability, T/C [21]: 93.9%
- viability, T/C [22]: 99.4%
- viability, T/C [23]: 109%
- viability, T/C [24]: 91.1%
- viability, T/C [25]: 85.8%
- viability, T/C [26]: 92.5%
- viability, T/C [27]: 83.1%
- viability, T/C [28]: 88%
- viability, T/C [29]: 93.4%
- viability, T/C [30]: 83.1%
- viability, T/C [31]: 70.4%
- viability, T/C [32]: 73.5%
- viability, T/C [33]: 83.8%
- viability, T/C [34]: 75%
- viability, T/C [35]: 83.7%
- viability, T/C [36]: 91.4%
